The subject of series [1] is 3T3-L1 cells. Briefly: Differentiation of preadipocytes, lipid accumulation by Oil Red O, Test Example 7. It is filed as cell-based. The settings on record: added to adipocyte differentiation induction medium, 100, 250 or 500 μM α-lipoic acid, 4 days; nanoparticles of Example 20A. As for the experimental part: 1.5 ml of D-MEM medium (D-MEM medium supplemented with 10% FCS, 100 units/ml of penicillin, and 100 μg/ml of streptomycin, all at final concentrations) was added to a plastic petri dish having a diameter of 3.5 cm. To this, 5.0×10^4 cells of 3T3-L1 cells, which are preadipocytes, were suspended, and precultured for 3 days to result in a confluent state. Thereafter, the medium was replaced with 3 ml of an adipocyte differentiation induction medium (D-MEM supplemented with 10% FCS, 100 units/ml of penicillin, 100 μg/ml of streptomycin, 5 μg/ml of insulin, 0.25 μM of dexamethasone, and 0.5 mM of isobutyl-methylxanthine (IBMX), all at final concentrations). After another 2 days, the medium was replaced with 3 ml of the adipocyte differentiation induction medium of the same composition, and then the culturing was carried out for 2 days. Thus, the culturing in the adipocyte differentiation induction medium was carried out for 4 days in total. During this culturing, an α-lipoic acid solution or the α-lipoic acid-MgCO3 nanoparticle solution of Example 20A was added to the adipocyte differentiation induction medium to result in 0, 100, 250 or 500 μM of α-lipoic acid concentration. […]
The amount of accumulated lipids in the cultured cells thus obtained was measured. […] The whole amount of this solution was recovered, and the absorbance at a wavelength of 520 nm was measured with a spectrophotometer.

For series [2] the following is noted: cited from earlier work.
The nature of series [3]: Improvement in sulfurous odor, Test Example 2 (left indoors under sunlight). It is filed as physicochemical. The settings on record: 0.1% α-lipoic acid in water, after two weeks. An excerpt: The paste after freeze-drying of the α-lipoic acid-MgCO3 nanoparticles produced in Example 1A, and the paste after freeze-drying of the α-lipoic acid nanoparticles produced in Comparative Example 1A without adding magnesium chloride and sodium carbonate, were respectively dispersed in distilled water such that the final concentration of α-lipoic acid reached 0.1%. The dispersions were placed in transparent test tubes made of resin, and the test tubes were left to stand indoors under sunlight. As a control, an aqueous dispersion liquid having α-lipoic acid dissolved in water (final concentration of α-lipoic acid 0.1%), which was prepared by adding an alkali (5M NaOH) to reagent α-lipoic acid, and thereby adjusting the pH to 7 to 7.5, was also left to stand in the same manner.

Series [4] in a line: Thermostability test of preparation, Test Example 1 (60° C., HPLC). It is filed as physicochemical. The settings on record: for Residual ratio(%) of α-lipoic acid: 60° C. As for the experimental part: The α-lipoic acid-MgCO3 nanoparticles produced in Example 1A, and the α-lipoic acid nanoparticles produced in Comparative Example 1A without adding magnesium chloride and sodium carbonate were respectively heated at 60° C., and the amounts of α-lipoic acid in the sample after one hour of heating and after 3 hours of heating were analyzed by HPLC. As a control, a reagent α-lipoic acid was used. The amount of α-lipoic acid after heating was divided by the amount of α-lipoic acid before heating, and the result was multiplied by 100 such that the residual ratio of α-lipoic acid was calculated. Symbol Δ represents the results of control reagent of α-lipoicacid, symbol ▪ represents the results of the α-lipoic acid dispersion liquid of Comparative Example 1, and symbol □ represents the results of the α-lipoic acid-MgCO3 nanoparticles of Example 1A.

The subject of series [5] is 3T3-L1 cells. Briefly: Dedifferentiation of mature adipocytes, lipid accumulation by Oil Red O, Test Example 8. It is filed as cell-based. The settings on record: added to adipocyte maturation medium, 100, 250 or 500 μM α-lipoic acid, 4 days; nanoparticles of Example 20A. As for the experimental part:
1.5 ml of D-MEM medium (D-MEM medium supplemented with 10% FCS, 100 units/ml of penicillin, and 100 μg/ml of streptomycin, all at final concentrations) was added to a plastic petri dish having a diameter of 3.5 cm. To this, 5.0×10^4 cells of 3T3-L1 cells, which are preadipocytes, were suspended, and precultured for 3 days to result in a confluent state. Thereafter, the medium was replaced with 3 ml of an adipocyte differentiation induction medium (D-MEM medium supplemented with 10% FCS, 100 units/ml of penicillin, 100 μg/ml of streptomycin, 5 μg/ml of insulin, 0.25 μM of dexamethasone, and 0.5 mM of isobutyl-methylxanthine, all at final concentrations), and the culturing was carried out for 4 days to induce the differentiation into adipocytes. Thereafter, the medium was replaced with an adipocyte maturation medium (D-MEM medium supplemented with 10% FCS, 100 units/ml of penicillin, 100 μg/ml of streptomycin, and 5 μg/ml of insulin, all at final concentrations), and the culturing was carried out for 7 days. Thereafter, the medium was replaced with a test medium, and culturing was carried out for another 4 days. […]
The amount of accumulated lipids in the cultured cells thus obtained was measured. […] The total amount of this solution was recovered, and the absorbance at a wavelength of 520 nm was measured with a spectrophotometer.

Take `O=C(O)CCCCC1CCSS1` (stereo not drawn) [α-lipoic acid]: the “accumulation of lipids in cells (Oil Red O, 520 nm)” value in series [1] is given as “reduction of the accumulation of lipids”. Moreover, the pKa value in series [2] is reported as 4.76. Further, the sulfurous odor entry in series [3] is given as “characteristic sulfurous odor strongly emanated”. Moreover, the “Residual ratio(%) of α-lipoic acid” value in series [4] (heating time 0 hrs) stood at 100%; in series [4] (heating time 1 hr), 50.51%; in series [4] (heating time 3 hrs), 44.20%. Further, in series [4] (after 3 hours of heating at 60° C.), the “reduction of the amount of α-lipoic acid” value was “about 55%”. The “amount of lipid accumulation in mature adipocytes (Oil Red O, 520 nm)” value in series [5] is “almost indifferent from that of the non-added group”.
As to `CC1=C(/C=C/C(C)=C/C=C/C(C)=C/C(=O)O)C(C)(C)CCC1` [retinoic acid], in series [2], the pKa value is listed as 6.4.

The record behind these values is patent US9079874B2, “α-Lipoic acid nanoparticles and methods for preparing thereof” (Ezaki Glico Co., Ltd., priority 2007, dated 2015).
